# Measurements from US12435091B2, “RNA-binding protein multimerization inhibitors and methods of use thereof” (THE UAB RESEARCH FOUNDATION, priority 2020, dated 2025).
# Like-named read-outs stand apart in the source and are kept apart here.
# How the values were obtained:
# HuR = molecular target: T1, HuR (Homo sapiens, UniProt Q15717); test: cell-based split firefly luciferase-HuR dimerization assay; details: for IC50: read-out: HuR IC50
# T1 construct: expressed in transfected cells; host or cells: U251 glioma cells, doxycycline-inducible constructs
# Experimental: (§1) The oncogenic activity of HuR is driven by subcellular localization into the cytoplasm and formation of multimers of HuR. To develop cell based assays to characterize the ability of small molecules to disrupt this process, a split luciferase assay detecting the formation of HuR dimers was developed. The assays were performed in 96 well plates with clear bottom (Corning Inc., Corning, NY). Cells with designed constructs (30,000-50,000 in number) were plated per well; the constructs were induced by doxycycline (0.75 ug/ml) for 48 hours. The evaluated compounds at different concentrations and the corresponding vehicle as the control were administered for 6 hours. The luminescence signals were detected by using InfinitiM200 plate reader (TECAN, Morrisville, NC) in the presence of the luciferase substrate luciferin (D-Luciferin, potassium salt), which was purchased from GoldBio (St Louis, MO). A multichannel pipette (XL 3000I™, Denville Scientific, South Plainfield, NJ) was used in all procedures to ensure the experiment quality.
# The assay used the coding sequence of HuR in frame with the N-terminus of firefly luciferase or the C-terminus as depicted in FIG. 2A. When HuR forms dimers in this case, luciferase is generated and with luciferin present, luminescence is generated.
# (§2) Squares represent luminescence signal from reporter representing HuR dimers (U251 cells co-expressing HuR-Nluc and HuR-Cluc constructs); circles represent luminescence signal from control reporter (U251 cells expressing Fluc construct). Results are shown as mean+SD.
# [1] = test system: U251 cells expressing Fluc construct; test: control Fluc (full length luciferase) reporter assay in U251 cells; assay type: cell-based; details: Homo sapiens, U-251, 6 h, read-out: Fluc Imax % Inh; for inhibition at 50 µM: Concn 50 uM; for inhibition at 25 µM: Concn 25 uM
# Experimental: as §1, with “quality. […]” for “quality.”
# as §2
# [2] = split luciferase HuR dimerization assay, compounds administered for 6 hours
# [3] = U251 cells co-expressing HuR-Nluc and HuR-Cluc, 6 hours of treatment
# T1 sequence (Q15717 whole entry): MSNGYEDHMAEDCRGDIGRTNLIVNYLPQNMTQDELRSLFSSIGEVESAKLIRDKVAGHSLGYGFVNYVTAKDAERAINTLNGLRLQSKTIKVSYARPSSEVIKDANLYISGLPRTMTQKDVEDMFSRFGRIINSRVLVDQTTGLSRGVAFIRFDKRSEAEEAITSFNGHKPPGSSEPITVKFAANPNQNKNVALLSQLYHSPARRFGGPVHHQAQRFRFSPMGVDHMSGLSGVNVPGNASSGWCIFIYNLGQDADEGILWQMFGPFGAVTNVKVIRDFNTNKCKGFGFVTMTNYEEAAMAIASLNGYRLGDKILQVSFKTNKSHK
compound,measurement,setting,value
CS(=O)(=O)c1ccc(-c2cnc3ccc(NC4CCOCC4)nn23)cc1 [Compound 6],IC50,HuR; [2],> 30 µM
OCc1ccccc1-c1cnc2ccc(NC3CCOCC3)nn12 [Compound 7],IC50,HuR; [2],> 100 µM
c1cncc(-c2cnc3ccc(NC4CCOCC4)nn23)c1 [Compound 8],IC50,HuR; [2],> 30 µM
CC(=O)Nc1cccc(-c2cnc3ccc(NC4CCOCC4)nn23)c1 [Compound 9],IC50,HuR; [2],> 30 µM
c1cc2cc(-c3cnc4ccc(NC5CCOCC5)nn34)ccc2o1 [Compound 10],IC50,HuR; [2],> 30 µM
c1ccc(-c2cnc3ccc(NC4CCOCC4)nn23)cc1 [Compound 11],IC50,HuR; [2],18 µM
c1cnc2cc(-c3cnc4ccc(NC5CCOCC5)nn34)ccc2n1 [Compound 12],IC50,HuR; [2],12 µM
"CN(c1ccc2ncc(-c3ccccc3)n2n1)C1CCOCC1 [Compound 14, N-Methyl-3-phenyl-N-(tetrahydro-2H-pyran-4-yl)imidazo[1,2-b]pyridazin-6-amine]",IC50,HuR; [2],23 µM
COc1ccc(-c2cnc3ccc(NC4CCCCC4)nn23)cc1 [Compound 15],IC50,HuR; [2],> 30 µM
"CCCN(C)c1ccc2ncc(-c3cccc(N(C)C)c3)n2n1 [Compound 16, 3-(3-(Dimethylamino)phenyl)-N-methyl-N-propylimidazo[1,2-b]pyridazin-6-amine]",IC50,HuR; [2],> 50 µM
"CCCN(C)c1ccc2ncc(-c3cccc4cnccc34)n2n1 [Compound 17, 3-(Isoquinolin-5-yl)-N-methyl-N-propylimidazo[1,2-b]pyridazin-6-amine]",IC50,HuR; [2],> 50 µM
"CN(c1ccc2ncc(-c3ccc4nccn4c3)n2n1)C1CCOCC1 [Compound 18, 3-(Imidazo[1,2-a]pyridin-6-yl)-N-methyl-N-(tetrahydro-2H-pyran-4-yl)imidazo[1,2-b]pyridazin-6-amine]",inhibition at 50 µM,[1],6%
same,HuR N/C Imax % Inh,HuR; Concn 50 uM,89%
same,IC50,HuR; [3],3 µM
same,IC50,HuR; [2],3 µM
"CN(c1ccc2ncc(-c3ccc4cnn(C)c4c3)n2n1)C1CCOCC1 [Compound 21, N-Methyl-3-(1-methyl-1H-indazol-6-yl)-N-(tetrahydro-2H-pyran-4-yl)imidazo[1,2-b]pyridazin-6-amine]",inhibition at 50 µM,[1],28%
same,HuR N/C Imax % Inh,HuR; Concn 50 uM,71%
same,IC50,HuR; [3],3.4 µM
same,IC50,HuR; [2],3.4 µM
"CN(c1ccc2ncc(-c3ccc4cn[nH]c4c3)n2n1)C1CCCCC1 [Compound 22, N-Cyclohexyl-3-(1H-indazol-6-yl)-N-methylimidazo[1,2-b]pyridazin-6-amine]",inhibition at 50 µM,[1],32%
same,HuR N/C Imax % Inh,HuR; Concn 50 uM,93%
same,IC50,HuR; [3],9 µM
same,IC50,HuR; [2],9 µM
"CN1CCC(N(C)c2ccc3ncc(-c4ccc5cn[nH]c5c4)n3n2)CC1 [Compound 25, 3-(1H-Indazol-6-yl)-N-methyl-N-(1-methylpiperidin-4-yl)imidazo[1,2-b]pyridazin-6-amine]",IC50,HuR; [2],> 50 µM
"c1cc2cn[nH]c2cc1-c1cnc2ccc(N(CC3CC3)C3CCOCC3)nn12 [Compound 28, N-(Cyclopropylmethyl)-3-(1H-indazol-6-yl)-N-(tetrahydro-2H-pyran-4-yl)imidazo[1,2-b]pyridazin-6-amine]",IC50,HuR; [2],> 50 µM
"Cc1n[nH]c2cc(-c3cnc4ccc(NC5CCOCC5)nn34)ccc12 [Compound 31, 3-(3-Methyl-1H-indazol-6-yl)-N-(tetrahydro-2H-pyran-4-yl)imidazo[1,2-b]pyridazin-6-amine]",IC50,HuR; [2],> 50 µM
"CCCN(C)c1ccc2ncc(-c3ccc4c(C)n[nH]c4c3)n2n1 [Compound 33, N-Methyl-3-(3-methyl-1H-indazol-6-yl)-N-propylimidazo[1,2-b]pyridazin-6-amine]",IC50,HuR; [2],25 µM
"Cc1nn(C)c2cc(-c3cnc4ccc(NC5CCOCC5)nn34)ccc12 [Compound 34, 3-(1,3-Dimethyl-1H-indazol-6-yl)-N-(tetrahydro-2H-pyran-4-yl)imidazo[1,2-b]pyridazin-6-amine]",IC50,HuR; [2],40 µM
"Cc1nn(C)c2cc(-c3cnc4ccc(N(C)C5CCOCC5)nn34)ccc12 [Compound 35, 3-(1,3-Dimethyl-1H-indazol-6-yl)-N-methyl-N-(tetrahydro-2H-pyran-4-yl)imidazo[1,2-b]pyridazin-6-amine]",IC50,HuR; [2],> 50 µM
"CCCN(C)c1ccc2ncc(-c3ccc4c(C)nn(C)c4c3)n2n1 [Compound 36, 3-(1,3-Dimethyl-1H-indazol-6-yl)-N-methyl-N-propylimidazo[1,2-b]pyridazin-6-amine]",IC50,HuR; [2],> 50 µM
"CN(c1ccc2ncc(-c3ccc4[nH]cnc4c3)n2n1)C1CCOCC1 [Compound 37, 3-(1H-Benzo[d]imidazol-5-yl)-N-methyl-N-(tetrahydro-2H-pyran-4-yl)imidazo[1,2-b]pyridazin-6-amine]",inhibition at 50 µM,[1],14%
same,HuR N/C Imax % Inh,HuR; Concn 50 uM,87%
same,IC50,HuR; [3],8 µM
same,IC50,HuR; [2],8 µM
"c1cc2[nH]ncc2cc1-c1cnc2ccc(NC3CCOCC3)nn12 [Compound 39, 3-(1H-Indazol-5-yl)-N-(tetrahydro-2H-pyran-4-yl)imidazo[1,2-b]pyridazin-6-amine]",inhibition at 25 µM,[1],28%
same,HuR N/C Imax % Inh,HuR; Concn 25 uM,94%
same,IC50,HuR; [2],0.3 µM
"CN(c1ccc2ncc(-c3ccc4[nH]ncc4c3)n2n1)C1CCOCC1 [Compound 40, 3-(1H-Indazol-5-yl)-N-methyl-N-(tetrahydro-2H-pyran-4-yl)imidazo[1,2-b]pyridazin-6-amine]",inhibition at 25 µM,[1],23%
same,HuR N/C Imax % Inh,HuR; Concn 25 uM,90%
same,IC50,HuR; [2],0.3 µM
"Cc1nn(C)c2ccc(-c3cnc4ccc(NC5CCOCC5)nn34)cc12 [Compound 43, 3-(1,3-Dimethyl-1H-indazol-5-yl)-N-(tetrahydro-2H-pyran-4-yl)imidazo[1,2-b]pyridazin-6-amine]",HuR IC50,HuR; [2],Insoluble
"Cc1nn(C)c2ccc(-c3cnc4ccc(N(C)C5CCOCC5)nn34)cc12 [Compound 44, 3-(1,3-Dimethyl-1H-indazol-5-yl)-N-methyl-N-(tetrahydro-2H-pyran-4-yl)imidazo[1,2-b]pyridazin-6-amine]",HuR IC50,HuR; [2],Insoluble
"c1ccc(CNc2ccc3ncc(-c4ccc5[nH]ncc5c4)n3n2)cc1 [Compound 47, N-Benzyl-3-(1H-indazol-5-yl)imidazo[1,2-b]pyridazin-6-amine]",inhibition at 50 µM,[1],24%
same,HuR N/C Imax % Inh,HuR; Concn 50 uM,93%
same,IC50,HuR; [3],3 µM
same,IC50,HuR; [2],3 µM
"CCCN(C)c1ccc2ncc(-c3ccc4[nH]ncc4c3)n2n1 [Compound 49, 3-(1H-Indazol-5-yl)-N-methyl-N-propylimidazo[1,2-b]pyridazin-6-amine]",inhibition at 100 µM,[1]; Concn 100 uM,12%
same,HuR N/C Imax % Inh,HuR; Concn 100 uM,89%
same,IC50,HuR; [3],0.6 µM
same,IC50,HuR; [2],0.6 µM
"c1cc2[nH]ncc2cc1-c1cnc2ccc(N3CCOCC3)nn12 [Compound 51, 4-(3-(1H-Indazol-5-yl)imidazo[1,2-b]pyridazin-6-yl)morpholine]",inhibition at 50 µM,[1],27%
same,HuR N/C Imax % Inh,HuR; Concn 50 uM,87%
same,IC50,HuR; [3],7 µM
same,IC50,HuR; [2],7 µM
"CN1CCN(c2ccc3ncc(-c4ccc5[nH]ncc5c4)n3n2)CC1 [Compound 52, 3-(1H-Indazol-5-yl)-6-(4-methylpiperazin-1-yl)imidazo[1,2-b]pyridazine]",inhibition at 50 µM,[1],13%
same,HuR N/C Imax % Inh,HuR; Concn 50 uM,90%
same,IC50,HuR; [3],8 µM
same,IC50,HuR; [2],8 µM
"CC(=O)c1n[nH]c2ccc(-c3cnc4ccc(N(C)C5CCOCC5)nn34)cc12 [Compound 54, 1-(5-(6-(Methyl(tetrahydro-2H-pyran-4-yl)amino)imidazo[1,2-b]pyridazin-3-yl)-1H-indazol-3-yl)ethan-1-one]",IC50,HuR; [2],> 50 µM
"CN(c1ccc2ncc(-c3cnc4[nH]ncc4c3)n2n1)C1CCOCC1 [Compound 55, N-Methyl-3-(1H-pyrazolo[3,4-b]pyridin-5-yl)-N-(tetrahydro-2H-pyran-4-yl)imidazo[1,2-b]pyridazin-6-amine]",inhibition at 50 µM,[1],10%
same,HuR N/C Imax % Inh,HuR; Concn 50 uM,90%
same,IC50,HuR; [3],1.2 µM
same,IC50,HuR; [2],1.2 µM
"CCCN(C)c1ccc2ncc(-c3cnc4[nH]ncc4c3)n2n1 [Compound 56, N-Methyl-N-propyl-3-(1H-pyrazolo[3,4-b]pyridin-5-yl)imidazo[1,2-b]pyridazin-6-amine]",inhibition at 50 µM,[1],5%
"c1cc2[nH]ncc2cc1-c1cnc2ccc(OC3CCOCC3)nn12 [Compound 57, 3-(1H-Indazol-5-yl)-6-((tetrahydro-2H-pyran-4-yl)oxy)imidazo[1,2-b]pyridazine]",inhibition at 50 µM,[1],12%
same,HuR N/C Imax % Inh,HuR; Concn 50 uM,89%
same,IC50,HuR; [2],2 µM
